Legend:
Plasmodium falciparum [1] = test: Percent parasitemia after 5 mg/kg peroral dose; assay type: functional, organism-based; set-up: dose 5 mg/kg; conditions: K1, at 5 mg/kg
Plasmodium falciparum [2] = test: Percent parasitaemia after 10 mg/kg oral dose; assay type: functional
Plasmodium falciparum [3] = test: Percent inhibition of Plasmodium falciparum FCM29 after 5 mg/kg oral dose; assay type: functional, organism-based; set-up: dose 5 mg/kg; conditions: K1, at 5 mg/kg
Plasmodium falciparum [4] = test: Percent inhibition of Plasmodium falciparum FCM29 after 10 mg/kg oral dose; assay type: functional
Plasmodium falciparum [5] = test: Percent parasitemia after 0.75 mg/kg dose; assay type: functional, K1
Plasmodium falciparum [6] = test: Percent inhibition of Plasmodium falciparum FCM29 after 0.75 mg/kg subcutaneous dose; assay type: functional; conditions: sc

Compound | Parasitemia (Plasmodium falciparum [1]) | Parasitemia (Plasmodium falciparum [2]; K1, at 10 mg/kg) | inhibition (Plasmodium falciparum [3]) | inhibition (Plasmodium falciparum [4]; at 10 mg/kg) | Parasitemia (Plasmodium falciparum [5]) | Parasitemia (Plasmodium falciparum [2]) | inhibition in vivo at 10 mg/kg (Plasmodium falciparum [4]) | inhibition in vivo at 0.75 mg/kg (Plasmodium falciparum [6])
Ferrocenoyl-strychnobrasiline derivative | 36.1% | 38.4% | 7.2% | 1.3% | – | – | – | –
CCN(CC)CCCC(C)Nc1ccnc2cc(Cl)ccc12 (stereo not drawn) [CHLOROQUINE] | – | – | – | – | 32.2% | 0.1% | 99.8% | 17.2%

Source: ChEMBL document CHEMBL1141970, “Synthesis and chloroquine-enhancing activity of Na-deacetyl-ferrocenoyl-strychnobrasiline” (2005)
